Measured values from ChEMBL document CHEMBL5344418, “Recent developments in antimalarial activities of 4-aminoquinoline derivatives” (Eur J Med Chem, 2023).
pIC50: −log10 of the molar value.

How the values were obtained:
Plasmodium falciparum [1] = experiment: Antiplasmodial activity against Plasmodium falciparum W2 assessed as reduction in plasmodial growth after 48 hrs by fluorescence based analysis; format: functional, organism-based; conditions: W2, 48 h
[2] = Cytotoxicity against African green monkey Vero cells assessed as reduction in cell viability incubated for 24 hrs by MTT assay; format: toxicity, cell-based; conditions: African green monkey (Chlorocebus sabaeus)
Plasmodium falciparum [3] = experiment: Antiplasmodial activity against Plasmodium falciparum 3D7 assessed as growth inhibition measured after 72 hrs by SYBR green dye based assay; format: functional, organism-based; conditions: 3D7, 72 h
Plasmodium falciparum [4] = experiment: Antiplasmodial activity against Plasmodium falciparum K1 assessed as growth inhibition measured after 72 hrs by SYBR green dye based assay; format: functional, organism-based; conditions: K1, 72 h
Plasmodium falciparum [5] = experiment: Antiplasmodial activity against chloroquine-sensitive Plasmodium falciparum NF54 by lactate dehydrogenase assay; format: functional, organism-based
[6] = Cytotoxicity against Chinese hamster CHO cells assessed as reduction in cell viability by MTT assay; format: toxicity, cell-based; conditions: Chinese hamster (Cricetulus griseus)

Structure (SMILES) | pIC50 (Plasmodium falciparum [1]) | IC50 at 24 h [2] [µM] | pIC50 (Plasmodium falciparum [3]) | pIC50 (Plasmodium falciparum [4]) | other results
O=C(CCN1C(=O)c2ccc(N3CCN(CCO)CC3)cc2C1=O)NCCCCNc1ccnc2cc(Cl)ccc12 | 6.85 | 169 | – | – | –
O=C(CN1C(=O)c2ccc(N3CCN(CCO)CC3)cc2C1=O)NCCCCNc1ccnc2cc(Cl)ccc12 | 6.07 | > 177 | – | – | –
CCC(C)C(CN1CCN(CC)CC1)Nc1ccnc2cc(Cl)ccc12 (stereo not drawn) | – | – | 6.94 | 6.30 | –
O=C(CN1C(=O)c2ccc(F)cc2C1=O)NCCCCCCNc1ccnc2cc(Cl)ccc12 | 5.83 | > 207 | – | – | –
O=C(CCCN1C(=O)c2ccccc2C1=O)NCCCCCCCCNc1ccnc2cc(Cl)ccc12 | 6.24 | 102 | – | – | –
CSCCC(CN1CCN(c2ccccc2)CC1)Nc1ccnc2cc(Cl)ccc12 (stereo not drawn) | – | – | < 5.30 | < 5.30 | –
O=C(CN1C(=O)c2ccccc2C1=O)NCCCCCCCCNc1ccnc2cc(Cl)ccc12 | 6.62 | > 203 | – | – | –
CCN(CC)c1ccc2c(c1)C(=O)N(CC(=O)NCCNc1ccnc3cc(Cl)ccc13)C2=O | 5.94 | 44.4 | – | – | –
O=C(/C=C/c1ccc(F)cc1F)c1ccc(S(=O)(=O)NCCCNc2cncc3cc(Cl)ccc23)cc1 | – | – | – | – | pIC50 (Plasmodium falciparum [5]): 6.30; pIC50 [6]: 4.65
CCN1CCN(CC(CC(C)C)Nc2ccnc3cc(C(F)(F)F)ccc23)CC1 (stereo not drawn) | – | – | 7.61 | 6.10 | –
O=C(/C=C/c1cc(F)ccc1F)c1ccc(S(=O)(=O)NCCCNc2cncc3cc(Cl)ccc23)cc1 | – | – | – | – | pIC50 (Plasmodium falciparum [5]): 6.10; pIC50 [6]: 4.36
O=C(CCN1C(=O)c2ccccc2C1=O)NCCCCNc1ccnc2cc(Cl)ccc12 | 6.39 | > 222 | – | – | –
CCN(CC)c1ccc2c(c1)C(=O)N(CCC(=O)NCCCCCCNc1ccnc3cc(Cl)ccc13)C2=O | 6.28 | > 182 | – | – | –
O=C(/C=C/c1c(F)cccc1F)c1ccc(S(=O)(=O)NCCCNc2cncc3cc(Cl)ccc23)cc1 | – | – | – | – | pIC50 (Plasmodium falciparum [5]): 6.27; pIC50 [6]: 4.56
O=C(/C=C/c1ccco1)c1ccc(S(=O)(=O)NCCCNc2cncc3cc(Cl)ccc23)cc1 | – | – | – | – | pIC50 (Plasmodium falciparum [5]): 5.35; pIC50 [6]: < 4.30
Clc1ccc2c(NC(CN3CCN(Cc4ccccc4)CC3)n3ccc4ccccc43)ccnc2c1 (stereo not drawn) | – | – | 6.22 | 6.28 | –
O=C(/C=C/c1ccccc1F)c1ccc(S(=O)(=O)NCCCNc2cncc3cc(Cl)ccc23)cc1 | – | – | – | – | pIC50 (Plasmodium falciparum [5]): 6.07; pIC50 [6]: 4.34
CC(C)CC(CN1CCN(Cc2ccc3c(c2)OCO3)CC1)Nc1ccnc2cc(Cl)ccc12 (stereo not drawn) | – | – | 6.68 | 6.34 | –
CCN1CCN(CC(CC(C)C)Nc2ccnc3cc(Cl)ccc23)CC1 (stereo not drawn) | – | – | 7.24 | 7.01 | –
Clc1ccc2c(NCCN3CCN(c4ncccn4)CC3)ccnc2c1 | – | – | 6.97 | 6.56 | –
CCN(CC)c1ccc2c(c1)C(=O)N(CC(=O)NCCCCNc1ccnc3cc(Cl)ccc13)C2=O | 5.93 | 46.9 | – | – | –
O=C(CN1C(=O)c2ccc(N3CCN(CCO)CC3)cc2C1=O)NCCNc1ccnc2cc(Cl)ccc12 | 5.98 | > 186 | – | – | –
O=C(/C=C/c1ccccc1)c1ccc(S(=O)(=O)NCCCNc2cncc3cc(Cl)ccc23)cc1 | – | – | – | – | pIC50 (Plasmodium falciparum [5]): 5.78; pIC50 [6]: < 4.30
O=C(CCN1C(=O)c2ccc(F)cc2C1=O)NCCNc1ccnc2cc(Cl)ccc12 | 6.44 | 93.2 | – | – | –
O=C(CN1C(=O)c2ccc(F)cc2C1=O)NCCNc1cccc2cc(Cl)ccc12 | 5.70 | > 235 | – | – | –

Structure (SMILES) | pIC50 (Plasmodium falciparum [1]) | IC50 at 24 h [2] [µM] | pIC50 (Plasmodium falciparum [3]) | pIC50 (Plasmodium falciparum [4]) | other results
O=C(CN1C(=O)c2ccccc2C1=O)NCCNc1ccnc2cc(Cl)ccc12 | 5.25 | > 245 | – | – | –
COc1ccc(/C=C/C(=O)c2ccc(S(=O)(=O)NCCCNc3cncc4cc(Cl)ccc34)cc2)cc1 | – | – | – | – | pIC50 (Plasmodium falciparum [5]): 6.96; pIC50 [6]: 4.36
CCN1CCN(CC(Nc2ccnc3cc(Cl)ccc23)n2ccc3ccccc32)CC1 (stereo not drawn) | – | – | 5.38 | < 5.30 | –
O=C(CCN1C(=O)c2ccc(N3CCN(CCO)CC3)cc2C1=O)NCCNc1ccnc2cc(Cl)ccc12 | 6.55 | – | – | – | –
O=C(CCN1C(=O)c2ccccc2C1=O)NCCCCCCCCNc1ccnc2cc(Cl)ccc12 | 6.82 | > 198 | – | – | –
Clc1ccc2c(NC(Cc3ccccc3)CN3CCN(Cc4ccccc4)CC3)ccnc2c1 (stereo not drawn) | – | – | < 5.30 | < 5.30 | –
CSCCC(CN1CCN(Cc2ccccc2)CC1)Nc1ccnc2cc(Cl)ccc12 (stereo not drawn) | – | – | 5.51 | < 5.30 | –
CC(C)CC(CN1CCN(c2ccccc2)CC1)Nc1ccnc2cc(Cl)ccc12 (stereo not drawn) | – | – | 6.28 | < 6.00 | –
O=C(CN1C(=O)c2ccc(N3CCOCC3)cc2C1=O)NCCCCNc1ccnc2cc(Cl)ccc12 | 5.89 | > 192 | – | – | –
O=C(CN1C(=O)c2ccc(N3CCN(CCO)CC3)cc2C1=O)NCCCCCCNc1ccnc2cc(Cl)ccc12 | 6.34 | > 169 | – | – | –
O=C(CCN1C(=O)c2ccc(F)cc2C1=O)NCCCCCCNc1ccnc2cc(Cl)ccc12 | 6.18 | 57.2 | – | – | –
CC(C)CC(CN1CCN(Cc2ccc3c(c2)OCO3)CC1)Nc1ccnc2cc(C(F)(F)F)ccc12 (stereo not drawn) | – | – | 7.65 | 7.33 | –
O=C(CCN1C(=O)c2ccc(N3CCN(CCO)CC3)cc2C1=O)NCCCCCCNc1ccnc2cc(Cl)ccc12 | 6.74 | > 165 | – | – | –
CCN1CCN(CC(C)Nc2ccnc3cc(Cl)ccc23)CC1 (stereo not drawn) | – | – | 6.90 | 6.44 | –
O=C(CCN1C(=O)c2ccc(N3CCOCC3)cc2C1=O)NCCCCNc1ccnc2cc(Cl)ccc12 | 6.66 | 136 | – | – | –
CCN1CCN(CC(CCSC)Nc2ccnc3cc(Cl)ccc23)CC1 (stereo not drawn) | – | – | 5.58 | < 5.30 | –
O=C(/C=C/c1ccc2c(c1)OCO2)c1ccc(S(=O)(=O)NCCCNc2cncc3cc(Cl)ccc23)cc1 | – | – | – | – | pIC50 (Plasmodium falciparum [5]): 6.16; pIC50 [6]: 4.47
CCN1CCN(CC(Cc2ccccc2)Nc2ccnc3cc(Cl)ccc23)CC1 (stereo not drawn) | – | – | 6.37 | 7.15 | –
O=C(/C=C/c1ccc(F)cc1)c1ccc(S(=O)(=O)NCCNc2cncc3cc(Cl)ccc23)cc1 | – | – | – | – | pIC50 (Plasmodium falciparum [5]): 6.24; pIC50 [6]: 4.84
O=C(CCCN1C(=O)c2ccccc2C1=O)NCCNc1ccnc2cc(Cl)ccc12 | 6.55 | > 229 | – | – | –
CCN(CC)c1ccc2c(c1)C(=O)N(CC(=O)NCCCCCCNc1ccnc3cc(Cl)ccc13)C2=O | 5.91 | > 187 | – | – | –
O=C(/C=C/c1ccccc1Cl)c1ccc(S(=O)(=O)NCCNc2cncc3cc(Cl)ccc23)cc1 | – | – | – | – | pIC50 (Plasmodium falciparum [5]): 6.43; pIC50 [6]: 4.45
O=C(CCN1C(=O)c2ccccc2C1=O)NCCNc1ccnc2cc(Cl)ccc12 | 6.52 | > 237 | – | – | –
CCOC(=O)N1CCN(CCNc2ccnc3cc(Cl)ccc23)CC1 | – | – | 6.05 | 6.79 | –
CC(CN1CCN(c2ccccc2)CC1)Nc1ccnc2cc(Cl)ccc12 (stereo not drawn) | – | – | 6.27 | 6.11 | –

Structure (SMILES) | pIC50 (Plasmodium falciparum [1]) | IC50 at 24 h [2] [µM] | pIC50 (Plasmodium falciparum [3]) | pIC50 (Plasmodium falciparum [4]) | other results
O=C(CN1C(=O)c2ccc(N3CCOCC3)cc2C1=O)NCCNc1ccnc2cc(Cl)ccc12 | 5.49 | > 203 | – | – | –
O=C(CCN1C(=O)c2ccccc2C1=O)NCCCCCCNc1ccnc2cc(Cl)ccc12 | 6.54 | 87.5 | – | – | –
O=C(CN1C(=O)c2ccccc2C1=O)NCCCCNc1ccnc2cc(Cl)ccc12 | 5.44 | > 229 | – | – | –
COc1ccc(/C=C/C(=O)c2ccc(S(=O)(=O)NCCNc3cncc4cc(Cl)ccc34)cc2)cc1 | – | – | – | – | pIC50 (Plasmodium falciparum [5]): 6.31; pIC50 [6]: 4.76
Cc1ccc(/C=C/C(=O)c2ccc(S(=O)(=O)NCCNc3cncc4cc(Cl)ccc34)cc2)cc1 | – | – | – | – | pIC50 (Plasmodium falciparum [5]): 6.41; pIC50 [6]: 4.60
O=C(CN1C(=O)c2ccc(N3CCOCC3)cc2C1=O)NCCCCCCNc1ccnc2cc(Cl)ccc12 | 5.75 | 20.2 | – | – | –
Clc1ccc2c(NC(Cc3ccccc3)CN3CCN(c4ccccc4)CC3)ccnc2c1 (stereo not drawn) | – | – | < 6.00 | 5.96 | –
COc1ccc(/C=C/C(=O)c2ccc(S(=O)(=O)NCCCNc3cncc4cc(Cl)ccc34)cc2)cc1OC | – | – | – | – | pIC50 (Plasmodium falciparum [5]): 6.49; pIC50 [6]: 4.36
CCOC(=O)N1CCN(CC(CC(C)C)Nc2ccnc3cc(Cl)ccc23)CC1 (stereo not drawn) | – | – | 6.07 | 6.38 | –
CCN(CC)c1ccc2c(c1)C(=O)N(CCC(=O)NCCCCNc1ccnc3cc(Cl)ccc13)C2=O | 6.59 | 84.4 | – | – | –
O=C(CN1C(=O)c2ccccc2C1=O)NCCCCCCNc1ccnc2cc(Cl)ccc12 | 5.47 | 248 | – | – | –
CCN(CC)c1ccc2c(c1)C(=O)N(CCC(=O)NCCNc1ccnc3cc(Cl)ccc13)C2=O | – | 203 | – | – | –
Clc1ccc2c(NC(Cc3ccccc3)CN3CCN(Cc4ccc5c(c4)OCO5)CC3)ccnc2c1 (stereo not drawn) | – | – | 6.12 | 7.05 | –
CC(CN1CCN(Cc2ccccc2)CC1)Nc1ccnc2cc(Cl)ccc12 (stereo not drawn) | – | – | 6.39 | 7.08 | –
O=C(CCN1C(=O)c2ccc(N3CCOCC3)cc2C1=O)NCCNc1ccnc2cc(Cl)ccc12 | 6.89 | 26.5 | – | – | –
CC(C)CC(CN1CCN(Cc2ccccc2)CC1)Nc1ccnc2cc(Cl)ccc12 (stereo not drawn) | – | – | 6.81 | < 6.00 | –
O=C(CCN1C(=O)c2ccc(N3CCOCC3)cc2C1=O)NCCCCCCNc1ccnc2cc(Cl)ccc12 | 6.19 | > 178 | – | – | –
CC(CN1CCN(Cc2ccc3c(c2)OCO3)CC1)Nc1ccnc2cc(Cl)ccc12 (stereo not drawn) | – | – | 6.97 | 7.15 | –
CC(C)CC(CN1CCN(c2ncccn2)CC1)Nc1ccnc2cc(Cl)ccc12 (stereo not drawn) | – | – | 6.34 | 6.45 | –
O=C(c1ccco1)N1CCN(CCNc2ccnc3cc(Cl)ccc23)CC1 | – | – | 6.00 | 5.37 | –
O=C(CCN1C(=O)c2ccc(F)cc2C1=O)NCCCCNc1ccnc2cc(Cl)ccc12 | 6.66 | 110 | – | – | –
O=C(CN1C(=O)c2ccc(F)cc2C1=O)NCCCCNc1ccnc2cc(Cl)ccc12 | 5.98 | > 220 | – | – | –
Clc1ccc2c(NCCN3CCN(Cc4ccc5c(c4)OCO5)CC3)ccnc2c1 | – | – | 6.28 | 7.33 | –
O=C(CCCN1C(=O)c2ccccc2C1=O)NCCCCNc1ccnc2cc(Cl)ccc12 | 6.08 | > 215 | – | – | –
O=C(CCCN1C(=O)c2ccccc2C1=O)NCCCCCCNc1ccnc2cc(Cl)ccc12 | 5.80 | > 203 | – | – | –
